The experiment deals with wild-type cap-binding domain of PB2 (Influenza A virus, UniProt P31345, R389K). Further details: species or system Influenza A/Victoria/3/1975(H3N2).

In general, Kd refers to the free concentration of one partner at which half of the binding sites on the other are occupied at equilibrium, for simple one-to-one binding. Low readings indicate a tighter complex, high ones a looser complex. Molecule `Nc1nc2c(ncn2[C@@H]2O[C@H](COP(=O)(O)OP(=O)(O)OP(=O)(O)O)[C@@H](O)[C@H]2O)c(=O)[nH]1` [GTP] came in with an equilibrium dissociation constant (Kd) of 1020 ± 100 µM.

For `C[n+]1cn([C@@H]2O[C@H](COP(=O)(O)OP(=O)(O)OP(=O)(O)O)[C@@H](O)[C@H]2O)c2nc(N)[nH]c(=O)c21` [m^7GTP, 7-methyl-guanosine triphosphate], the Kd is 177 ± 34 µM.

For the origin of these results see patent US9045248B2 (priority 2007, dated 2015).
